Data taken from PMC11078746 (Nature, 2024).
Blank lines part the entries; values can stand above or below the molecule they belong to.

Key:
[1] = system: WRN protein in MSI and MSS cells; assay: WRN degradation (immunoblot, ELISA); format: cell-based, human
Procedure: A list of all of the antibodies is provided in Supplementary Table 2. […] The plates were washed in PBS and 200 µl per well of blocking reagent added (PBS, 0.05% Tween-20, 5% skimmed milk), and the plates were incubated for a minimum of 2 h at room temperature. […] The plates were then washed and 50 µl of secondary antibody per well diluted in blocking buffer was added and the plates were incubated overnight at 4 °C. The next day, 50 µl of tertiary antibody was added per well buffer and the plates were incubated for 2 h at room temperature. […] The plates were shaken and luminescence was detected immediately on the Synergy HT microplate reader.

[2] = molecular target: T1, WRN D1D2RH (Asn517–Pro1238) (Homo sapiens, UniProt Q14191); assay: Cy5-ATPγS binding assay using TR-FRET (ATP binding)
T1 construct: 10 nM WRN D1D2RH (protein construct (Asn517–Pro1238)); His tag (N, cleaved yes); ZZ tag (N, cleaved yes); made in house; host or cells: Sf21 insect cells (baculovirus)
T1 sequence (Q14191 517-1238): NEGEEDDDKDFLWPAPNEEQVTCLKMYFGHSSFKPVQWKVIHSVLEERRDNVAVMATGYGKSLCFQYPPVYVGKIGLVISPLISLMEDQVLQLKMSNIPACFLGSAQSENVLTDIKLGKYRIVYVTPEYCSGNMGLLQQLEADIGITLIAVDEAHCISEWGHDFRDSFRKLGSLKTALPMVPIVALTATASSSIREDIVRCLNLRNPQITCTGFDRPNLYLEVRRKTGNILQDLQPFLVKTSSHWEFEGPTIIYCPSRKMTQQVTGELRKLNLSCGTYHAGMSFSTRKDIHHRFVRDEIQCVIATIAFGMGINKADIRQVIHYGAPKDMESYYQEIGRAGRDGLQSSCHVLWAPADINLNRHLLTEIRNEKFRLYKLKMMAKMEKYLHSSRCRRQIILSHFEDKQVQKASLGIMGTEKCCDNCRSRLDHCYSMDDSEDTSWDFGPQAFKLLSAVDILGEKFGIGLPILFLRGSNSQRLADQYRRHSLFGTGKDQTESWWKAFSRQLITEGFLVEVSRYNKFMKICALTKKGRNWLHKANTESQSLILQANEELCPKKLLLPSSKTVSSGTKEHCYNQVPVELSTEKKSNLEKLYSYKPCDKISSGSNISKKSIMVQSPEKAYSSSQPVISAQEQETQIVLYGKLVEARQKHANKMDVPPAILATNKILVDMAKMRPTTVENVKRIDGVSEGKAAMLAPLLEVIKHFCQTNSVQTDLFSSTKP
Procedure: A ratio of F665 over F620 was then calculated to determine the FRET efficiency in each well. This assay protocol was used during hit optimization to build the initial structure–activity relationship and was also adapted to 1,536-well plates for screening purposes.

RecQ1 = molecular target: T2, RecQ1 (Homo sapiens, UniProt P46063); assay: RecQ selectivity ATPase assay; format: biochemical
T2 construct: human RecQ1-D1D2 (UniProt: P46063, Asp62–Ser482); His tag (N); made in house; host or cells: E. coli BL21(DE3), by the 'analogous procedure'
T2 sequence (P46063 62-482): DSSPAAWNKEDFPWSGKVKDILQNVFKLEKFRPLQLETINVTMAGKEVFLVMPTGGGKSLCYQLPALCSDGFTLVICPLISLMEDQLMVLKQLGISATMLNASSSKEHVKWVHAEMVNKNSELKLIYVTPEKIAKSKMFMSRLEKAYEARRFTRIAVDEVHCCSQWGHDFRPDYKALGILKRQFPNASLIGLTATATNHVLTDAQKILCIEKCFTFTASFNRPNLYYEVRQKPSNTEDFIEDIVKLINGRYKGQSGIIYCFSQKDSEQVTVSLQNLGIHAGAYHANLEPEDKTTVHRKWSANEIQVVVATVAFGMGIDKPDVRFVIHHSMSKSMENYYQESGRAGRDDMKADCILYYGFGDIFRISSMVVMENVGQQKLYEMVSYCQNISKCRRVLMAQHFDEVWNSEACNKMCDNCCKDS
Procedure: (§1) DNA sequence allowing expression of human BLM-D1D2RH (UniProt P54132: Lys640–Gly1298) fused at the amino-terminal end to His tag followed by TEV-cleavage site, was inserted into a pET-derived vector. Protein expression was performed in BL21(DE3) cells after IPTG induction. Cells were collected and resuspended in lysis buffer (50 mM NaH2PO4, 300 mM NaCl, 1 mM TCEP, 20 mM imidazole, pH 8.0) supplemented with 2 mM MgCl2, benzonase and 0.5 mM AEBSF. Cells were lysed with an Emulsiflex C3 homogenizer. After ultracentrifugation, the lysate was loaded onto a HisTrap HP column. Bound protein was eluted with an imidazole gradient in lysis buffer. The amino-terminal tag was cleaved with TEV protease. Cleaved protein was loaded on Resource S ion-exchange column and eluted with a NaCl gradient in IEX buffer (20 mM Tris, 1 mM TCEP, 10% glycerol, 20 mM NaCl, pH 7.4). As a final step, BLM-D1D2RH protein was concentrated and loaded onto the Superdex 75 gel-filtration column pre-equilibrated with SEC buffer (50 mM Tris, 150 mM NaCl, 10% glycerol, pH 7.4). Eluted target protein was concentrated and frozen on dry ice. An analogous procedure was used for the expression and purification of human RecQ1-D1D2 (UniProt: P46063, Asp62–Ser482) and Human RecQ5-D1D2 (UniProt: O94762, Asp11–Trp453) proteins.
(§2) We used an ADP-Glo assay kit (Promega) to monitor ATP hydrolysis. A 45-oligonucleotide with the following sequence: […], referred to as FLAP26, as described previously[45] was purchased from IDT (Integrated DNA Technologies) and used as a DNA substrate. […] The reaction was started by addition of 2.5 μl of ssDNA substrate at 0.4 nM and incubated for 30 min at room temperature. The reaction was stopped with the addition of 5 μl of the first ADP-Glo reagent and incubated for 1 h to remove the excess amount of ATP. Then, 10 μl of ATP detection reagent was added and incubated for an additional hour before reading. The luminescence output was recorded using the Pherastar reader, with a 5 min delay before reading. Each concentration of compounds was tested in duplicates in the assay plate. The compound potency (IC50 value) was determined using custom software (Novartis Helios software application) with a four-parameter sigmoid Hill-curve model. After normalization of activity values for the wells to percentage inhibition (percentage inhibition = [(high control activity − sample activity)/(high control activity − low control activity)] × 100), IC50 fitting was performed from the duplicate determinations present on each plate.
(§3) The same ATPase assay protocol was used with the three other RecQ protein constructs to assess the selectivity over WRN. Time-course experiments were performed to determine the best enzymatic assay conditions for each RecQ protein. The experiments were run as described above with 10 nM RecQ1 protein construct with 10 nM ssDNA substrate, 2 nM BLM protein construct with 0.2 nM ssDNA substrate and 0.5 nM RecQ5 protein construct with 2 nM ssDNA substrate, respectively.

RecQ5 = molecular target: T3, RecQ5 (Homo sapiens, UniProt O94762); assay: RecQ selectivity ATPase assay; format: biochemical
T3 construct: Human RecQ5-D1D2 (UniProt: O94762, Asp11–Trp453); His tag (N); made in house; host or cells: E. coli BL21(DE3), by the 'analogous procedure'
T3 sequence (O94762 11-453): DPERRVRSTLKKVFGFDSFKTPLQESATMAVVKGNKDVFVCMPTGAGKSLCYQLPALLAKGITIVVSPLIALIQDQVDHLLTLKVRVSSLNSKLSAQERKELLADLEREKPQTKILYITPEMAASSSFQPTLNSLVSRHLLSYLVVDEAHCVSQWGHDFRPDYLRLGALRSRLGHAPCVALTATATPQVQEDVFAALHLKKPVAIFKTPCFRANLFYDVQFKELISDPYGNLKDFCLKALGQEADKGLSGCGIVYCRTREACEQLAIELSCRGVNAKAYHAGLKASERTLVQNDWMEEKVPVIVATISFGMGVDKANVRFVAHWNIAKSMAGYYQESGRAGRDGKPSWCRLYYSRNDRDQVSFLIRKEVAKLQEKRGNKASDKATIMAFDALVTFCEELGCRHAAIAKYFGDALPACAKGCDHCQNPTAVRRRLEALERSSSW
Procedure: as §1, §2, §3

logD / logP = format: physicochemical; conditions: 1-octanol/water, pH 7.4, 1-octanol and water at pH 7.4
MDCK LE permeability = format: in vitro ADME, canine; conditions: dog, Fig. 1b
Rat PK = format: in vivo
Procedure: PK parameters were determined by non-compartmental analysis. Intravenous bolus studies in mouse, rat and dog were performed at 1, 1 and 0.1 mg per kg respectively (Extended Data Table 1).

[3] = molecular target: T1, WRN D1D2RH (Asn517–Pro1238); assay: ATPase activity analysis, ADP-Glo; format: biochemical
Procedure: as §2

SW48 xenografts = assay: SW48 xenograft efficacy, HRO761, irinotecan and combination; format: in vivo, mouse; conditions: Irinotecan 60mg/kg
Procedure: All animal studies were conducted in accordance with ethics and procedures covered by permit BS-2275 and BS-1975 issued by the Kantonales Veterinäramt Basel-Stadt and in strict adherence to guidelines of the Eidgenössisches Tierschutzgesetz and the Eidgenössische Tierschutzverordnung, Switzerland. All animal studies were approved by the internal ethics committee. All animals had access to food and water ad libitum and were identified with transponders. They were housed in a specific-pathogen-free facility in IVC racks under a 12 h–12 h light–dark cycle. To establish cell-line-derived xenograft models, 6–7-week-old female athymic nude (Crl:NU(NCr)-Foxn1^nu) or SCID-BEIGE (CB17.Cg-PrkdcscidLystbg-J/Crl) mice from Charles River were engrafted subcutaneously with 5 million tumour cells in HBSS (H6648, Sigma-Aldrich). For SNU-407, Lovo, IM95, RL95.2, Ishikawa and IGROV-1, the cells were concentrated in 50% Matrigel (354234, Corning). Patient-derived xenografts were induced and expanded by transplantation as previously described. […] For the efficacy experiment, mice were randomized into groups (n = 5–6) for a mean tumour size of 100–150 mm^3. […] Blood samples were collected on day 7 and 91. […] Tumour responses are reported with the measures of tumour volumes from the treatment start. […] Animals were randomized (n = 3) and tumour samples were collected at 0, 1, 4, 8 and 24 h on the first day and then collected 4 h after the last treatment on day 3, 8, 10, 14 (including a 24 h timepoint), 17 and 21. Tumours were excised, weighed, either frozen in liquid nitrogen and cryogenic dry pulverized with the CryoPrep system (model CP-02, Covaris) or processed to FFPE after fixation. […] On day 12, blood samples were collected for PK analysis. On the last day (3 h after the last treatment), tumours were excised, weighed, frozen in liquid nitrogen and cryogenic dry pulverized for PD analysis.

WRN D1D2 C727A = molecular target: T4, WRN D1D2 C727A (Homo sapiens, UniProt Q14191, C727A); assay: ATPase assay; conditions: read-out: Biochemical IC50 ATPase WRN D1D2 C727A
T4 construct: the minimal D1–D2 helicase core (WRN 517–945)
T4 sequence (Q14191 517-945 C727A): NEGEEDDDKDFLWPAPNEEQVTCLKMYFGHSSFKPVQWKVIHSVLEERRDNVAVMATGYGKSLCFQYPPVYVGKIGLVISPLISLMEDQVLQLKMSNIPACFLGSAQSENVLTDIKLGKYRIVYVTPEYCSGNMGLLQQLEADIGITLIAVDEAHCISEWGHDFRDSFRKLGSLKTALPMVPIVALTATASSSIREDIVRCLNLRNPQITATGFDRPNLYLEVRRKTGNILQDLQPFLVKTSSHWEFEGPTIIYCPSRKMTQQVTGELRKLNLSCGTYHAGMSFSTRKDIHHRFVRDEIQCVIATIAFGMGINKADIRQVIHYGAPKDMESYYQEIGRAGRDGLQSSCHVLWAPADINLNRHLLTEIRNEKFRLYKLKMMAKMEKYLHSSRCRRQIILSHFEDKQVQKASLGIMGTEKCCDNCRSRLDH
Procedure: as §2

WRN D1D2 C727S = molecular target: T5, WRN D1D2 C727S (Homo sapiens, UniProt Q14191, C727S); assay: ATPase assay; conditions: read-out: Biochemical IC50 ATPase WRN D1D2 C727S
T5 construct: the minimal D1–D2 helicase core (WRN 517–945)
T5 sequence (Q14191 517-945 C727S): as the sequence (Q14191 517-945 C727A) above, with A211S counted along it
Procedure: as §2

[4] = molecular target: T6, WRN D1D2 WT (WRN 517–945) (Homo sapiens, UniProt Q14191); assay: ATPase assay; conditions: read-out: Biochemical IC50 ATPase WRN D1D2 WT
T6 construct: the minimal D1–D2 helicase core (WRN 517–945)
T6 sequence (Q14191 517-945): as the sequence (Q14191 517-945 C727A) above, with A211C counted along it
Procedure: as §2

WRN full length = molecular target: T7, WRN full length (Homo sapiens, UniProt Q14191); assay: ATPase assay; conditions: read-out: Biochemical IC50 ATPase WRN full length
T7 construct: ATPase WRN full length: 0.02; made in house
T7 sequence (Q14191 whole entry): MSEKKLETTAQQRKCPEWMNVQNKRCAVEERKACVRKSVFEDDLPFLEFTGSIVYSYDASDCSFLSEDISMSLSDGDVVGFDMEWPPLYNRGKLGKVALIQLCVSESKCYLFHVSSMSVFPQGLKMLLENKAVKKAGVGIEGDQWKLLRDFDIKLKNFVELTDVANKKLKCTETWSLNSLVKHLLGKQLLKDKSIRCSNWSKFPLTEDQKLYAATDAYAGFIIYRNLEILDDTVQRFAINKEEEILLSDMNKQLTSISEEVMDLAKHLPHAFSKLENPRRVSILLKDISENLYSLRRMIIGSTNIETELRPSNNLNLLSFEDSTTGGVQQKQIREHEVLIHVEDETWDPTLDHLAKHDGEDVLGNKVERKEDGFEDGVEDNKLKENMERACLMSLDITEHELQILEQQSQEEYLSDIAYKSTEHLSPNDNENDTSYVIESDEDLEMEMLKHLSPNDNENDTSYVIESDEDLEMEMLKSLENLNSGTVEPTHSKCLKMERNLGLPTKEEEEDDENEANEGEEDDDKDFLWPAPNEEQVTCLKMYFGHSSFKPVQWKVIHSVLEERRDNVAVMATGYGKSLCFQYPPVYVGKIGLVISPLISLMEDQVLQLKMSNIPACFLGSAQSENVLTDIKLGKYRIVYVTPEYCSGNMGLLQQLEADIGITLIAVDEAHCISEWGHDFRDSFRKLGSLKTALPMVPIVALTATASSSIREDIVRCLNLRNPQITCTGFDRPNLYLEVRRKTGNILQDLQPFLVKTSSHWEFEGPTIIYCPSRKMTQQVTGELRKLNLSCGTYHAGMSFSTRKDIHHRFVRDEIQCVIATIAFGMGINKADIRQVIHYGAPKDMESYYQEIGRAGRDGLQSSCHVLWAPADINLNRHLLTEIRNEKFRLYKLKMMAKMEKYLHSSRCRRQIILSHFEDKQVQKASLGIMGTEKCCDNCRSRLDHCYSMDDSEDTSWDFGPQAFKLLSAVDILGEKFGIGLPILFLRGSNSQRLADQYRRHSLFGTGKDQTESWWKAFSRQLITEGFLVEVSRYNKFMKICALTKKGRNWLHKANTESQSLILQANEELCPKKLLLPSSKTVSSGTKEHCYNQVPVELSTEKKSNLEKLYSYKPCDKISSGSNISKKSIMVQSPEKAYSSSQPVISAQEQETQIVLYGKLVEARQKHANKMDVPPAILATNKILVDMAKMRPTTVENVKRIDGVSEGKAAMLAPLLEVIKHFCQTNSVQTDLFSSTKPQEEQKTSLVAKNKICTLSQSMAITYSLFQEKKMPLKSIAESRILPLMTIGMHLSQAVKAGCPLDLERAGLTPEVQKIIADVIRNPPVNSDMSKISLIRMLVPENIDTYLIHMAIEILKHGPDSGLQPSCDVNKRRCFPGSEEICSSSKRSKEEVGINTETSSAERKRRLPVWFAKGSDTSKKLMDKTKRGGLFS
Procedure: as §2

WRN (D1D2RH) = molecular target: T8, WRN (D1D2RH) (Homo sapiens, UniProt Q14191); assay: Radioactive binding assay using an SPA (saturation binding); conditions: 10 nM WRN
T8 construct: N-terminal Avi Tag-WRN(Asn517–Pro1238)
T8 sequence (Q14191 517-1238): as the sequence (Q14191 517-1238) above
Procedure: A total of 20 μl N-terminal Avi tag-WRN protein (Asn517-Pro1238) in 30 mM Tris pH 7.5, 30 mM NaCl, […], 0.02% BSA, 0.1% Pluronic F127, containing or not a fivefold higher concentration of dsDNA as compared to protein concentration, were incubated with 20 μl [^3H]-probe 6 (Extended Data Fig. 2f) for 1 h at room temperature. Then, 10 μl Streptavidin-coated PVT scintillation proximity assay (SPA) beads (Perkin Elmer, RPNQ0009) were added and the plate was read after 30 min in a TopCount luminescence reader (1 min, delay,1 min per well). The final assay concentrations were 10 nM WRN, 50 nM dsDNA (for the condition with dsDNA), a concentration range of radioligand as shown in the graphs and 50 μg per well of PVT SPA beads. The dsDNA was the same substrate as used in the DNA-unwinding assay (without labels).

[5] = author rebuttal, compound numbers of an earlier manuscript version, read-out: Cy5-ATPγS binding assay in TR-FRET - IC50

SMILES: CC[C@@]1(O)C(=O)OCc2c1cc1n(c2=O)Cc2cc3ccccc3nc2-1 [camptothecin, reference compound]
- WRN degradation, dependence on MSI/MSS status [1]: irrespective of their MSI/MSS status

- IC50 [2, 5]: 0.009 µM
- IC50 (RecQ1): > 100 µM
- IC50 (RecQ5): > 100 µM
- logD (logD / logP): 3.7
- Papp (MDCK LE permeability): 2 nm/s
- Rat PK, oral bioavailability (F) (Rat PK): 0 % F
SMILES: Cc1c(N2CCN(C(=O)c3c(F)ccc(F)c3O)CC2)c(=O)n2nc(C3=CCOCC3)nc2n1CC(=O)Nc1ccc(C(F)(F)F)cc1 [compound 2]

- IC50 ([2]; WRN D1D2RH, Fig. 1b, Extended Data Fig. 2b, read-out: ATP binding IC50): 3 µM
- IC50 [2, 5]: 3.3 µM
- IC50 ([3]; Fig. 1b, ATP concentration not given, read-out: ATPase IC50): 22 µM
SMILES: Cc1cccc(NC(=O)Cn2c(C)cc(=O)n3nc(-c4cccs4)nc23)c1C [compound 1]

SMILES: CCc1c2c(nc3ccc(OC(=O)N4CCC(N5CCCCC5)CC4)cc13)-c1cc3c(c(=O)n1C2)COC(=O)[C@]3(O)CC [irinotecan, reference compound]
- Mean TVol (mm3) (SW48 xenografts; day 0 post 1st dose): 254.88 mm3
- Mean TVol (mm3) (SW48 xenografts; day 4 post 1st dose): 329.29 mm3
- Mean TVol (mm3) (SW48 xenografts; day 7 post 1st dose): 550.55 mm3
- Mean TVol (mm3) (SW48 xenografts; day 11 post 1st dose): 635.45 mm3
- Mean TVol (mm3) (SW48 xenografts; day 14 post 1st dose): 640.95 mm3
- Mean TVol (mm3) (SW48 xenografts; day 18 post 1st dose): 669.98 mm3
- Mean TVol (mm3) (SW48 xenografts; day 21 post 1st dose): 833.51 mm3

- IC50 [2, 5]: 0.013 µM
- IC50 ([3]; Extended Data Fig. 2b, read-out: Biochemical IC50 ATPase WRN D1D2RH): 0.27 µM
- mode of action with regard to DNA ([3]; KDNA determination, 0.5 nM WRN D1D2RH, 100 µM ATP): non-competitive mode of action
- IC50 (WRN D1D2 C727A): 1.1 µM
- IC50 (WRN D1D2 C727S): 25 µM
- IC50 [4]: 0.25 µM
- IC50 (WRN full length): 0.11 µM
SMILES: CC(=O)N1CCN(c2c(C)n(CC(=O)Nc3ccc(Cl)cc3)c3nc(N4CCN(C(=O)OC(C)(C)C)CC4)nn3c2=O)CC1 [compound 5]

- Kd (WRN (D1D2RH); in absence of dsDNA): 0.01 µM
- Kd (WRN (D1D2RH); in presence of 50 nM dsDNA): 0.014 µM
SMILES: [3H]c1cc(C(F)(F)F)cc([3H])c1NC(=O)Cn1c(C)c(N2CCN(C(C)=O)CC2)c(=O)n2nc(N3CCN(C(C)=O)CC3)nc12 [compound 6]
